Test results from US5928185A, “Iontophoresis device for the transcutaneous delivery of an active principle such as an anionic oligosaccharide” (Sanofi, priority 1995, dated 1999).

Legend:
[1] = Transdermic passage of sodium pentasaccharide salt by iontophoresis at set intensity through nude rat skin (Example 2); format: in vitro ADME
Description: The procedure as described in Example 1 was carried out, but with the following modifications:
implementation of the iontophoresis by setting a constant intensity through each cell
use of a continuous current instead of a pulsed current
the absence of buffer in the donor and back-electrode compartments in test 2d, because these compartments are equipped with electrodes of the Ag/AgCl type, which avoid hydrolysis of water.
[…], over a period of 6 hours, using a generator making it possible to set a constant intensity irrespective of the voltages generated across the terminals of each cell.

[2] = Transdermic passage of sodium pentasaccharide salt by iontophoresis at constant voltage through nude rat skin (Example 1)
Description: Study of the transdermic passage of a sodium pentasaccharide salt by iontophoresis at constant voltage.
The operation was carried out in iontophoresis cells of identical structure. Each iontophoresis cell consisted of three coaxial adjacent cylindrical compartments having a cross-sectional area of 2 cm^2, namely, in this order, a donor compartment, a receiver compartment and a back-electrode compartment, these three compartments being each separated from the following one in leak-tight fashion by a piece of nude rat skin (OFA/hr/hr) used as a membrane for studying the transcutaneous diffusion. […] The receiver compartment, having a volume of 10 ml, held physiological saline solution supplemented with 500 ppm of NaN3 and was stirred using a magnetic bar. The back-electrode compartment, which was identical to the donor compartment, held 0.5 ml of a 2% by weight aqueous solution of sodium chloride as well as 500 ppm by weight of NaN3. At its opposite end from the receiver compartment, the donor compartment was equipped with a negative electrode. In the same way as the donor compartment, the back-electrode compartment was equipped with a positive electrode (back electrode).
The rat skin samples had had the subcutaneous tissue removed and had been preserved by freezing at -40° C. until they were mounted in the iontophoresis cell, with the dermic faces turned towards the receiver compartment, after they had been placed for 15 minutes in physiological saline solution supplemented with 500 ppm of NaN3.
For each of the tests which were carried out, four identical iontophoresis cells were started simultaneously. The active exchange surface area was 2 cm^2 for each skin.
A pulsed current generator made it possible to set up an electrical signal of the potentiostatic type between the electrodes of the four cells, mounted in parallel, with a peak voltage equal to 2.2 volts and a duty ratio of 50% (i.e. an average voltage of 1.1 volts) and a frequency of 25 kHz.
The pulsed current produced by the generator was applied for 6 hours, the electrode of the donor compartment of each cell being connected to the negative pole of the said generator, and the back electrodes to the positive pole.
At the end of the said time, an aliquot of the medium contained in the receiver compartment was withdrawn and the quantity of pentasaccharide that had passed through the skin separating the donor and the receiver compartments of each cell was determined by assay. A second sample was taken 24 hours after the start of each experiment, i.e. 18 hours after the electrical signal had stopped.
Five tests 1a to 1e were carried out as follows:
Test 1a: The negative electrode and the positive electrode consisted of a titanium film having a thickness equal to 10 μm. No voltage was applied to the electrodes, in order to determine the passive transcutaneous diffusion.
Test 1b: The negative electrode and the positive electrode consisted of a graphite sheet having a thickness of 60 μm.
Test 1c: The negative electrode and the positive electrode consisted of a titanium film having a thickness equal to 10 μm.
Test 1d to 1e: The negative electrode consisted of a silver film having a thickness of 15 μm, chlorided beforehand on one face in order to contain a silver chloride layer corresponding to 1.8 mAh/cm^2, whereas the positive electrode consisted of a silver film having a thickness of 15 μm, very slightly chlorided on one face (a quantity of silver chloride corresponding to 0.1 mAh/cm^2, the chlorided face of each electrode being on the side adjacent to the rat skin membrane.
In tests Ia to Id, the donor and the receiver compartments of each cell held a 0.06 molar buffer composition based on sodium monohydrogenphosphate and dihydrogenphosphate in equimolar quantities, so as to keep the pH in the said compartments at a value of about 7. In test 1e, no buffer was used.

[3] = test 2a: titanium, 0 mA/cm^2 (passive)

With `O=C(O)C1OC(OC2C(COS(=O)(=O)O)OC(OC3C(C(=O)O)OC(OC4C(COS(=O)(=O)O)OC(O)C(NS(=O)(=O)O)C4O)C(OS(=O)(=O)O)C3O)C(NS(=O)(=O)O)C2OS(=O)(=O)O)C(O)C(O)C1OC1OC(COS(=O)(=O)O)C(O)C(O)C1NS(=O)(=O)O` (stereo not shown) [pentasaccharide] the “Fraction of active principle used (%)” value ([1]; at 6 hours, test 2a: titanium, 0 mA/cm^2 (passive)) was “~ zero”, the “Fraction of active principle used (%)” value ([1]; at 6 hours, test 2b: graphite, 0.2 mA/cm^2) was 0.09% and the “Fraction of active principle used (%)” value ([1]; at 6 hours, test 2c: titanium, 0.2 mA/cm^2) was 0.49%. For the same compound, the “Fraction of active principle used (%)” value ([1]; at 6 hours, test 2d: Ag/AgCl, 0.2 mA/cm^2) was 2.8%, the “Fraction of active principle used (%)” value ([1]; at 24 hours, test 2a: titanium, 0 mA/cm^2 (passive)) was 0.09% and the “Fraction of active principle used (%)” value ([1]; at 24 hours, test 2b: graphite, 0.2 mA/cm^2) was 0.9%. The “Fraction of active principle used (%)” value ([1]; at 24 hours, test 2c: titanium, 0.2 mA/cm^2) was 0.75%, the “Fraction of active principle used (%)” value ([1]; at 24 hours, test 2d: Ag/AgCl, 0.2 mA/cm^2) was 3.7% and the “Antifactor activity Xa/ml at 6 hours” value [1, 3] was 0.12 units per ml. For the same compound, the “Antifactor activity Xa/ml at 24 hours” value [1, 3] was 0.6 units per ml, the total diffused quantity ([1]; test 2a: titanium, passive) was 4.64 μg per cm^2 and the “Antifactor activity Xa/ml at 6 hours” value ([1]; test 2b: graphite, 0.2 mA/cm^2) was 6 units per ml. For the same compound, the total diffused quantity ([1]; test 2b: graphite, 0.2 mA/cm^2) was 45 μg per cm^2, the “Antifactor activity Xa/ml at 24 hours” value ([1]; test 2b: graphite, 0.2 mA/cm^2, 18 hours after current stopped) was 5.8 units per ml and the “Antifactor activity Xa/ml at 6 hours” value ([1]; test 2c: titanium, 0.2 mA/cm^2) was 3.2 units per ml. The total diffused quantity ([1]; test 2c: titanium, 0.2 mA/cm^2) was 38 μg per cm^2, the “Antifactor activity Xa/ml at 24 hours” value ([1]; test 2c: titanium, 0.2 mA/cm^2, 18 hours after current stopped) was 4.9 units per ml and the “total diffused quantity per mAh” value ([1]; test 2d: Ag/AgCl electrodes) was 154 μg/cm^2 per mAh. The total diffused quantity ([1]; test 2d: Ag/AgCl, 0.2 mA/cm^2) was 185 μg per cm^2, the “Antifactor activity Xa/ml at 6 hours” value ([1]; test 2d: Ag/AgCl, 0.2 mA/cm^2, no buffer) was 18.1 units per ml and the “Antifactor activity Xa/ml at 24 hours” value ([1]; test 2d: Ag/AgCl, 0.2 mA/cm^2, 18 hours after current stopped) was 24 units per ml. The “quantities of pentasaccharide diffused into the receiver compartment by iontophoresis” value ([2]; Ag/AgCl negative electrodes (reversible)) was “increase very greatly”, the “Fraction of active principle used (%)” value ([2]; at 6 hours, test 1a: titanium, 0 V (passive)) was “~ zero” and the “Fraction of active principle used (%)” value ([2]; at 6 hours, test 1b: graphite, 1.1 V) was 0.1%. For the same compound, the “Fraction of active principle used (%)” value ([2]; at 6 hours, test 1c: titanium, 1.1 V) was 0.08%, the “Fraction of active principle used (%)” value ([2]; at 6 hours, test 1e: Ag/AgCl, 1.1 V, no buffer) was 2.8% and the “Fraction of active principle used (%)” value ([2]; at 6 hours, test 1d: Ag/AgCl, 1.1 V, buffer) was 1.4%. For the same compound, the “Fraction of active principle used (%)” value ([2]; at 24 hours, test 1a: titanium, 0 V (passive)) was “~ zero”, the “Fraction of active principle used (%)” value ([2]; at 24 hours, test 1b: graphite, 1.1 V) was 0.2% and the “Fraction of active principle used (%)” value ([2]; at 24 hours, test 1c: titanium, 1.1 V) was 0.15%. For the same compound, the “Fraction of active principle used (%)” value ([2]; at 24 hours, test 1e: Ag/AgCl, 1.1 V, no buffer) was 3.3%, the “Fraction of active principle used (%)” value ([2]; at 24 hours, test 1d: Ag/AgCl, 1.1 V, buffer) was 1.5% and the “quantities of pentasaccharide diffused into the receiver compartment by iontophoresis” value ([2]; irreversible electrodes such as graphite or titanium) was “very small and similar to the passive transport”. The “Antifactor activity Xa/ml at 6 hours” value ([2]; test 1a: titanium electrodes, 0 V (passive), buffer pH about 7) was under 0.1 units per ml, the “Antifactor activity Xa/ml at 24 hours” value ([2]; test 1a: titanium, 0 V (passive)) was 0.25 units per ml and the “Antifactor activity Xa/ml at 6 hours” value ([2]; test 1b: graphite electrode, average 1.1 V, buffer) was 0.70 units per ml. For the same compound, the “Antifactor activity Xa/ml at 24 hours” value ([2]; test 1b: graphite, 1.1 V, 18 hours after current stopped) was 1.13 units per ml, the “Antifactor activity Xa/ml at 6 hours” value ([2]; test 1c: titanium electrode, average 1.1 V, buffer) was 0.50 units per ml and the “Antifactor activity Xa/ml at 24 hours” value ([2]; test 1c: titanium, 1.1 V, 18 hours after current stopped) was 0.95 units per ml. The “Antifactor activity Xa/ml at 6 hours” value ([2]; test 1e: Ag/AgCl electrode, average 1.1 V, about 0.20 mA/cm^2, no buffer) was 18.1 units per ml, the “Antifactor activity Xa/ml at 24 hours” value ([2]; test 1e: Ag/AgCl, 1.1 V, no buffer, 18 hours after current stopped) was 21.4 units per ml and the “Antifactor activity Xa/ml at 6 hours” value ([2]; test 1d: Ag/AgCl electrode, average 1.1 V, about 0.20 mA/cm^2, buffer) was 9.1 units per ml. For the same compound, the “Antifactor activity Xa/ml at 24 hours” value ([2]; test 1d: Ag/AgCl, 1.1 V, buffer, 18 hours after current stopped) was 9.7 units per ml.
